Measurements as given in ChEMBL document CHEMBL4483862, “Open-source discovery of chemical leads for next-generation chemoprotective antimalarials” (2018).

Test system: Plasmodium berghei
Test: Luciferase/luciferin-expressing antifolate-resistant parasites were used to infect a culture of HepG2 cells that were pre-incubated with compounds. Infected hepatocytes emit light due to the luciferase reaction. Assay results are presented as the percent inhibition of light emission compared to control. […]
Format: functional
Conditions: sporozoite; for IC90: read-out: LUCIFERASE INFECTION ASSAY - IC90
[1] = read-out: LUCIFERASE INFECTION ASSAY - IC50

Row | SMILES | IC90 | other results
1 | O=C(CN1CCC(Nc2ncnc3cc(Cl)ccc23)CC1)Nc1ccccc1 | 5.83 µM | IC50 (HEPG2TOX_HILL_SLOPE 1.03, HEPG2TOX_R_SQUARED 0.872, PBLUC_HILL_SLOPE 1.97, PBLUC_R_SQUARED 0.801, read-out: LUCIFERASE INFECTION ASSAY - IC50): 1.91 µM
2 | COc1ccc(NC=C2C(=O)CC(c3cccs3)CC2=O)cc1 (configuration not stated) | > 10.1 µM | IC50 [1]: > 10.1 µM
3 | NS(=O)(=O)c1ccc(CCNc2nn3c(-c4ccc(F)c(Cl)c4)cnc3s2)cc1 | > 7.3 µM | IC50 (FFLUC_HILL_SLOPE 96, FFLUC_R_SQUARED 0.344, HEPG2TOX_HILL_SLOPE 2.59, HEPG2TOX_R_SQUARED 0.44, read-out: LUCIFERASE INFECTION ASSAY - IC50): > 7.3 µM
4 | CCOC(=O)C1=C(COC(=O)c2oc3ccc(OC)cc3c2C)NC(=O)NC1 | > 10 µM | IC50 (HEPG2TOX_HILL_SLOPE 3.23, HEPG2TOX_R_SQUARED 0.736, PBLUC_HILL_SLOPE 1.66, PBLUC_R_SQUARED 0.334, read-out: LUCIFERASE INFECTION ASSAY - IC50): > 10 µM
5 | COc1cc(OC)c(C2=CCN(c3cc(=O)n4ccccc4n3)CC2)c(OC)c1 | > 10 µM | IC50 (PBLUC_HILL_SLOPE 11.4, PBLUC_R_SQUARED 0.492, read-out: LUCIFERASE INFECTION ASSAY - IC50): 9.03 µM
6 | O=C(NC1CC1)c1ccc(-c2cn3c(-c4ccc(C(=O)NC5CC5)cc4)cnc3cn2)cc1 | > 7.54 µM | IC50 (HEPG2TOX_HILL_SLOPE 0.33, HEPG2TOX_R_SQUARED 0.326, PBLUC_HILL_SLOPE 6.32, PBLUC_R_SQUARED 0.0215, read-out: LUCIFERASE INFECTION ASSAY - IC50): > 7.54 µM
7 | Cn1cc(-c2cnc3cnc(-c4ccccc4Oc4ccccc4)cn23)cn1 | 3.5 µM | IC50 (PBLUC_HILL_SLOPE 18.2, PBLUC_R_SQUARED 0.499, read-out: LUCIFERASE INFECTION ASSAY - IC50): 3.1 µM
8 | CC1(C)CCc2cc(-c3ccnc(S)n3)ccc2O1 | > 12.1 µM | IC50 (FFLUC_HILL_SLOPE 9.25, FFLUC_R_SQUARED 0.0162, PBLUC_HILL_SLOPE 0.814, PBLUC_R_SQUARED 0.637, read-out: LUCIFERASE INFECTION ASSAY - IC50): 1.38 µM
9 | O=C(Nc1nc2cc3c(cc2s1)OCCO3)c1cccc2c[nH]nc12 | 0.404 µM | IC50 (PBLUC_HILL_SLOPE 1.1, PBLUC_R_SQUARED 0.666, read-out: LUCIFERASE INFECTION ASSAY - IC50): 0.0549 µM
10 | Cc1ccccc1-c1cn2c(-c3ccc(N(C)C)cc3)cnc2cn1 | > 10 µM | 
11 | Cc1ccc(NC(=O)NC(=O)c2c(-c3snnc3C)noc2C)cc1 | > 9.23 µM | IC50 (HEPG2TOX_HILL_SLOPE 1.11, HEPG2TOX_R_SQUARED 0.954, PBLUC_HILL_SLOPE 1.54, PBLUC_R_SQUARED 0.355, read-out: LUCIFERASE INFECTION ASSAY - IC50): 2.53 µM
12 | CC(=O)c1c(C)[nH]c(C(=O)Nc2nc3ccccc3[nH]2)c1C | > 10 µM | IC50 (FFLUC_HILL_SLOPE 0.837, FFLUC_R_SQUARED 0.9, PBLUC_HILL_SLOPE 0.352, PBLUC_R_SQUARED 0.709, read-out: LUCIFERASE INFECTION ASSAY - IC50): 0.0695 µM
13 | CC(=O)Nc1cccc(-n2nnnc2Sc2ccc([N+](=O)[O-])cc2C#N)c1 | 9.5 µM | IC50 (PBLUC_HILL_SLOPE 17.4, PBLUC_R_SQUARED 0.386, read-out: LUCIFERASE INFECTION ASSAY - IC50): 8.38 µM
14 | Cc1ccc(CCCNC(=O)c2cc(C3CC3)n[nH]2)c(C)c1 | 4.2 µM | IC50 (PBLUC_HILL_SLOPE 15.6, PBLUC_R_SQUARED 0.22, read-out: LUCIFERASE INFECTION ASSAY - IC50): 3.65 µM
15 | Cc1sc(-n2cccc2)c(C(=O)Nc2cccc(-c3nn[nH]n3)c2)c1C | > 10 µM | IC50 (FFLUC_HILL_SLOPE 1.33, FFLUC_R_SQUARED 0.778, read-out: LUCIFERASE INFECTION ASSAY - IC50): > 10 µM
16 | C(=C\c1cn2c(-c3cccnc3)cnc2cn1)/c1ccccc1 | > 11.1 µM | IC50 (HEPG2TOX_HILL_SLOPE 0.303, HEPG2TOX_R_SQUARED 0.424, PBLUC_HILL_SLOPE 9.4, PBLUC_R_SQUARED 0.254, read-out: LUCIFERASE INFECTION ASSAY - IC50): 8.93 µM
17 | CSc1c(-c2ccc(Cl)cc2)[nH]c2ccccc12 | > 12.1 µM | IC50 (PBLUC_HILL_SLOPE 3.51, PBLUC_R_SQUARED 0.189, read-out: LUCIFERASE INFECTION ASSAY - IC50): 11.1 µM
18 | CC(C)(C)OC(=O)N1CCc2nc(NC(=O)c3ccc(Cl)cc3F)sc2C1 | 8.96 µM | IC50 (HEPG2TOX_HILL_SLOPE 2.37, HEPG2TOX_R_SQUARED 0.812, PBLUC_HILL_SLOPE 3.49, PBLUC_R_SQUARED 0.436, read-out: LUCIFERASE INFECTION ASSAY - IC50): 4.77 µM
19 | CSc1sc(C(=O)N/N=C/c2ccccc2)c2c1C1(CCC2)SCCS1 | > 7.85 µM | IC50 (PBLUC_HILL_SLOPE 1.27, PBLUC_R_SQUARED 0.257, read-out: LUCIFERASE INFECTION ASSAY - IC50): 5.56 µM
20 | Cn1ncc(C#N)c1NC(=O)c1cccc(Oc2ccccc2)c1 | 8.69 µM | IC50 (HEPG2TOX_HILL_SLOPE 1.03, HEPG2TOX_R_SQUARED 0.84, PBLUC_HILL_SLOPE 1.64, 1.43, PBLUC_R_SQUARED 0.588, 0.656, read-out: LUCIFERASE INFECTION ASSAY - IC50): 2.85 µM

Row | SMILES | IC90 | other results
21 | CSc1nncn1-c1ccccc1 | 15.4 µM | IC50 (PBLUC_HILL_SLOPE 3.17, PBLUC_R_SQUARED 0.315, read-out: LUCIFERASE INFECTION ASSAY - IC50): 7.69 µM
22 | O=C(c1ccc(Cl)cc1)N1CCCC(C(=O)N2CCN(Cc3ccc4c(c3)CCO4)CC2)C1 (configuration not stated) | > 10 µM | IC50 [1]: > 10 µM
23 | O=c1c(Cl)cc(C(F)(F)F)cn1Cc1csc(Nc2ccccc2)n1 | > 10 µM | IC50 (HEPG2TOX_HILL_SLOPE 6.73, HEPG2TOX_R_SQUARED 0.639, PBLUC_HILL_SLOPE 3.67, PBLUC_R_SQUARED 0.234, read-out: LUCIFERASE INFECTION ASSAY - IC50): 8.88 µM
24 | NNc1cc(C(F)(F)F)nc(C(F)(F)F)c1 | 13 µM | IC50 (PBLUC_HILL_SLOPE 17.4, PBLUC_R_SQUARED 0.11, read-out: LUCIFERASE INFECTION ASSAY - IC50): 11.5 µM
25 | CCSc1ncc(-c2nnnn2-c2ccccc2)c(-c2ccccc2)n1 | > 9.16 µM | IC50 (FFLUC_HILL_SLOPE 12.6, FFLUC_R_SQUARED 0.17, read-out: LUCIFERASE INFECTION ASSAY - IC50): > 9.16 µM
26 | C=C(C)[C@@H]1CC=C(CN2CCC3(CC2)C(=O)N(CCCc2cccnc2)C(=O)N3CC)CC1 | 6.89 µM | IC50 (HEPG2TOX_HILL_SLOPE 0.525, HEPG2TOX_R_SQUARED 0.846, PBLUC_HILL_SLOPE 1.68, PBLUC_R_SQUARED 0.809, read-out: LUCIFERASE INFECTION ASSAY - IC50): 1.86 µM
27 | Cc1ccccc1-c1cn2c(-c3ccc(O)cc3)cnc2cn1 | 3.92 µM | IC50 (FFLUC_HILL_SLOPE 9.55, FFLUC_R_SQUARED 0.182, HEPG2TOX_HILL_SLOPE 2.1, HEPG2TOX_R_SQUARED 0.88, PBLUC_HILL_SLOPE 16, PBLUC_R_SQUARED 0.259, read-out: LUCIFERASE INFECTION ASSAY - IC50): 3.41 µM
28 | Cc1cnc(NC(=O)c2ccc(N(C)C3CCCCC3)cc2)s1 | 0.327 µM | IC50 (HEPG2TOX_HILL_SLOPE 7.67, HEPG2TOX_R_SQUARED 0.65, PBLUC_HILL_SLOPE 1.69, PBLUC_R_SQUARED 0.349, read-out: LUCIFERASE INFECTION ASSAY - IC50): 0.0892 µM
29 | Cc1ccc2nc(NC(=O)C3CCCCC3)c(C(=O)NC3CCCCC3)n2c1 | > 8.63 µM | IC50 (HEPG2TOX_HILL_SLOPE 0.0875, HEPG2TOX_R_SQUARED 0.133, PBLUC_HILL_SLOPE 0.199, PBLUC_R_SQUARED 0.0366, read-out: LUCIFERASE INFECTION ASSAY - IC50): > 8.63 µM
30 | NNc1nc(C(F)(F)F)nc2c1cnn2Cc1ccccc1 | > 10 µM | IC50 (FFLUC_HILL_SLOPE 3.09, FFLUC_R_SQUARED 0.0505, read-out: LUCIFERASE INFECTION ASSAY - IC50): > 10 µM
31 | CCCCNC(=O)c1c(NC(=O)c2cccc(C)c2)nc2ccccn12 | 6.37 µM | IC50 (HEPG2TOX_HILL_SLOPE 8.37, HEPG2TOX_R_SQUARED 0.0961, PBLUC_HILL_SLOPE 7.21, PBLUC_R_SQUARED 0.187, read-out: LUCIFERASE INFECTION ASSAY - IC50): 4.7 µM
32 | O=C(COC(=O)C1(c2ccccc2F)CCCC1)NC1CCCCCCC1 | > 10 µM | IC50 (PBLUC_HILL_SLOPE 12.1, PBLUC_R_SQUARED 0.29, read-out: LUCIFERASE INFECTION ASSAY - IC50): > 10 µM
33 | COc1ccccc1-c1nc(COC(=O)c2cccnc2SC)cs1 | > 10 µM | IC50 [1]: > 10 µM
34 | CC(C)(C)CNC(=S)N/N=C/c1cc(Cl)cc(Cl)c1O | > 9.87 µM | IC50 (HEPG2TOX_HILL_SLOPE 2.41, HEPG2TOX_R_SQUARED 0.728, PBLUC_HILL_SLOPE 9.45, PBLUC_R_SQUARED 0.267, read-out: LUCIFERASE INFECTION ASSAY - IC50): 9.07 µM
35 | CCCOc1ccc2ccccc2c1CN(C)c1cncc(-n2cccn2)n1 | > 10 µM | IC50 [1]: > 10 µM
36 | C=CCOc1cccc(C(=O)N(C)Cc2nc(-c3ccc(Cl)cc3)no2)c1 | > 8.6 µM | IC50 [1]: > 8.6 µM
37 | O=C(Nc1ccc(C(F)(F)F)cc1)Nc1sccc1Cl | 7.98 µM | IC50 (HEPG2TOX_HILL_SLOPE 9.59, HEPG2TOX_R_SQUARED 0.7, PBLUC_HILL_SLOPE 5.14, PBLUC_R_SQUARED 0.452, read-out: LUCIFERASE INFECTION ASSAY - IC50): 5.21 µM
38 | CSc1ccc(OC(=O)Nc2ccccc2)cc1 | > 12.7 µM | IC50 [1]: > 12.7 µM
39 | COc1ccc(-c2cc3ncnc(NCC4CN(Cc5ccccc5)CCO4)c3s2)cc1 (configuration not stated) | > 10 µM | IC50 (PBLUC_HILL_SLOPE 9.06, PBLUC_R_SQUARED 0.282, read-out: LUCIFERASE INFECTION ASSAY - IC50): 8.38 µM
